Results reported in patent publication US20090326196A1 (priority 2006, published 2009).

Molecular target: DPP IV (from porcine kidney, EC 3.4.14.5) (Sus scrofa, UniProt P22411)
Conditions: for hydrolysis products by RP-HPLC (FIG. 38): F8: 48 h at 20 U/L and 1 h at 200 U/L, F89: 20 and 60 mins; for fragments detected after incubation with DPP IV: after 24 h incubation
Procedure: Proteolytic Stability. […] DPP IV has a relative specific requirement for substrate residues at P2, P1, P1′ and P2′ positions regarding the scissile Ala-Glu amide bond. Especially, at P1 position, Pro and Ala are highly favored. […] The proteolytic stability of peptides towards DPP IV (from porcine kidney, EC 3.4.14.5) was determined by analytical RP-HPLC assay (detection at 230 nm). A chromogenic substrate, Gly-Pro-p-nitroanilide, was employed to calibrate specific activity by measuring absorbance at 410 nm using Δε=8800 M^−1·cm^−1 in 100 mM Tris-HCl, pH 8.0. […] Reactions were quenched with 600 μL of 0.2% TFA at time intervals and stored on dry ice until the analysis. An analytical C18 column [J. T. Baker C18, 5 μm, 4 mm×250 mm] was used for separation and quantitation of intact and digested peptides with a binary solvent system can/H2O/0.1% TFA. First order rate constants were obtained as the fitted value±one standard deviation by fitting with the equation: […]
where A is the concentration of peptides; k the first order rate constant; t the reaction time in min; and [A]0 the initial concentration of peptides. The fragments derived from the full-length peptides were manually collected and identified by ESI-MS.

Sequence of DPP IV (from porcine kidney, EC 3.4.14.5) (P22411 whole entry, the tested form may be a part): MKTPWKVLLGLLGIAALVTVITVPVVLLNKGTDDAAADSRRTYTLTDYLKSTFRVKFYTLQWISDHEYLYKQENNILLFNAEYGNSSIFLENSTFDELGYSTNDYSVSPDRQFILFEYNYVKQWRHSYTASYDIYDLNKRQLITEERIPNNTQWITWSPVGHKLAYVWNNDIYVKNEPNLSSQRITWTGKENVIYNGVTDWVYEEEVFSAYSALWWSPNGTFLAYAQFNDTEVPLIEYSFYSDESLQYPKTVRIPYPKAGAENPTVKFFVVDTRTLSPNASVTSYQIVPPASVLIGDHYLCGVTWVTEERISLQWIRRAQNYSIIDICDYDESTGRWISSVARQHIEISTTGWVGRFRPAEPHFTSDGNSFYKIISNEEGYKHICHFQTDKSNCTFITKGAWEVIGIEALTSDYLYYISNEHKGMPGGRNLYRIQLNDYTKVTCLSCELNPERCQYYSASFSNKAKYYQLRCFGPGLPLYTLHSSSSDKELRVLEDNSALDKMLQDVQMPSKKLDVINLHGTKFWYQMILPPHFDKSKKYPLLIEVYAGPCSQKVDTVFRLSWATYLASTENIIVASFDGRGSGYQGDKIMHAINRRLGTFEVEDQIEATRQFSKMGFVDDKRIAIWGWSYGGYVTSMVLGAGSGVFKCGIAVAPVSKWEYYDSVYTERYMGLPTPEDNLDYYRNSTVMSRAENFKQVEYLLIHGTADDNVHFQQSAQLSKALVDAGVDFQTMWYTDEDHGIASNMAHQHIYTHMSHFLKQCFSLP

Row | SMILES | resistance to DPP IV, in words (hexafluoroleucine at P1′ and P2′ positions) | hydrolysis products by RP-HPLC (FIG. 38) | fragments detected after incubation with DPP IV
1 | CC[C@H](C)[C@H](NC(=O)[C@H](Cc1ccccc1)NC(=O)[C@H](CCC(=O)O)NC(=O)[C@H](CCCCN)NC(=O)[C@H](C)NC(=O)[C@H](C)NC(=O)[C@H](CCC(N)=O)NC(=O)CNC(=O)[C@H](CCC(=O)O)NC(=O)[C@H](CC(C)C)NC(=O)[C@H](Cc1ccc(O)cc1)NC(=O)[C@H](CO)NC(=O)[C@H](CO)NC(=O)[C@@H](NC(=O)[C@H](CC(=O)O)NC(=O)[C@H](CO)NC(=O)[C@@H](NC(=O)[C@H](Cc1ccccc1)NC(=O)[C@@H](NC(=O)CNC(=O)[C@H](CC(C(F)(F)F)C(F)(F)F)NC(=O)[C@H](C)NC(=O)[C@@H](N)Cc1c[nH]cn1)[C@@H](C)O)[C@@H](C)O)C(C)C)C(=O)N[C@@H](C)C(=O)N[C@@H](Cc1c[nH]c2ccccc12)C(=O)N[C@@H](CC(C)C)C(=O)N[C@H](C(=O)N[C@@H](CCCCN)C(=O)NCC(=O)N[C@@H](CCCNC(=N)N)C(N)=O)C(C)C [Peptide F9] | moderate enhanced resistance |  | 
2 | CC[C@H](C)[C@H](NC(=O)[C@H](Cc1ccccc1)NC(=O)[C@H](CCC(=O)O)NC(=O)[C@H](CCCCN)NC(=O)[C@H](C)NC(=O)[C@H](C)NC(=O)[C@H](CCC(N)=O)NC(=O)CNC(=O)[C@H](CCC(=O)O)NC(=O)[C@H](CC(C)C)NC(=O)[C@H](Cc1ccc(O)cc1)NC(=O)[C@H](CO)NC(=O)[C@H](CO)NC(=O)[C@@H](NC(=O)[C@H](CC(=O)O)NC(=O)[C@H](CO)NC(=O)[C@@H](NC(=O)[C@H](Cc1ccccc1)NC(=O)[C@@H](NC(=O)CNC(=O)[C@H](CC(C(F)(F)F)C(F)(F)F)NC(=O)[C@H](CC(C(F)(F)F)C(F)(F)F)NC(=O)[C@@H](N)Cc1cnc[nH]1)[C@@H](C)O)[C@@H](C)O)C(C)C)C(=O)N[C@@H](C)C(=O)N[C@@H](Cc1c[nH]c2ccccc12)C(=O)N[C@@H](CC(C)C)C(=O)N[C@H](C(=O)N[C@@H](CCCCN)C(=O)NCC(=O)N[C@@H](CCCNC(=N)N)C(N)=O)C(C)C [Peptide F89] |  | No detectable hydrolysis products | no fragments were detected
3 | CC[C@H](C)[C@H](NC(=O)[C@H](Cc1ccccc1)NC(=O)[C@H](CCC(=O)O)NC(=O)[C@H](CCCCN)NC(=O)[C@H](C)NC(=O)[C@H](C)NC(=O)[C@H](CCC(N)=O)NC(=O)CNC(=O)[C@H](CCC(=O)O)NC(=O)[C@H](CC(C)C)NC(=O)[C@H](Cc1ccc(O)cc1)NC(=O)[C@H](CO)NC(=O)[C@H](CO)NC(=O)[C@@H](NC(=O)[C@H](CC(=O)O)NC(=O)[C@H](CO)NC(=O)[C@@H](NC(=O)[C@H](Cc1ccccc1)NC(=O)[C@@H](NC(=O)CNC(=O)[C@H](CCC(=O)O)NC(=O)[C@H](CC(C(F)(F)F)C(F)(F)F)NC(=O)[C@@H](N)Cc1cnc[nH]1)[C@@H](C)O)[C@@H](C)O)C(C)C)C(=O)N[C@@H](C)C(=O)N[C@@H](Cc1c[nH]c2ccccc12)C(=O)N[C@@H](CC(C)C)C(=O)N[C@H](C(=O)N[C@@H](CCCCN)C(=O)NCC(=O)N[C@@H](CCCNC(=N)N)C(N)=O)C(C)C [Peptide F8] |  | No detectable hydrolysis products | no fragments were detected
